The text below walks through data of article PMC10483676 (ACS Omega, 2023).

By IC50 is commonly meant the concentration that inhibits the measured activity by half. A higher IC50 goes with lower potency.

Structures are written as SMILES.

Chain of urease enzyme from the Jack bean (Canavalia ensiformis) (P07374 whole entry, looked up): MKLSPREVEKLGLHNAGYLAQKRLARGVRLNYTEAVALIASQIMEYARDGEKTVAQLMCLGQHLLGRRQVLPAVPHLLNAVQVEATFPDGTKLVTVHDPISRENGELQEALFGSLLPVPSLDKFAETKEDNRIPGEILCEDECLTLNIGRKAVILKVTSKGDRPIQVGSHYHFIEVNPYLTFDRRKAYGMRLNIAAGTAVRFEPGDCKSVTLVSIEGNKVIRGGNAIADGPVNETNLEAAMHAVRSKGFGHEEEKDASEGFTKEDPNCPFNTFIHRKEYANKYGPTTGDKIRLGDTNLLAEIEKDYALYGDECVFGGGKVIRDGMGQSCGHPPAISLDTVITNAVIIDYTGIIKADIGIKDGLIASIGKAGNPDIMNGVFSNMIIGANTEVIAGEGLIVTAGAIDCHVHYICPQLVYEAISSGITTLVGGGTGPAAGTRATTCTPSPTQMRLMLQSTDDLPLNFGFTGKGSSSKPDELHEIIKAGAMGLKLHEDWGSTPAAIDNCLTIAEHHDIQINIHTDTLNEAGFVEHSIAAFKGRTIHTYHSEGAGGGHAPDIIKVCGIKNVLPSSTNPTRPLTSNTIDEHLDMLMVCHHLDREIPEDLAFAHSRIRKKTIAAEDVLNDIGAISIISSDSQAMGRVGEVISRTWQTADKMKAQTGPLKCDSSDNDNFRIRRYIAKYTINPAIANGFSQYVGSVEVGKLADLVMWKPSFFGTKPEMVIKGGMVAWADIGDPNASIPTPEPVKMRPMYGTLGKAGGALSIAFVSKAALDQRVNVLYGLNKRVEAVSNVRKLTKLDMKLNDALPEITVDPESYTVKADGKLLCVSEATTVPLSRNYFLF

The first assay addresses urease enzyme from the Jack bean (Canavalia ensiformis) (Canavalia ensiformis, UniProt P07374). The assay can be described thus: In vitro urease assay. Type of assay: biochemical.
Conditions: not given
`COc1ccc(-c2nnc3sc(COc4ccc(O)cc4)nn23)cc1` [4b] came in with an IC50 of 25.2 ± 0.56 µM.

In the case of `Oc1ccccc1OCc1nn2c(-c3cccc(Br)c3)nnc2s1` [4g], the IC50 came out at 4.5 ± 0.13 µM.

In the case of `Oc1ccc(OCc2nn3c(-c4cccc(Br)c4)nnc3s2)cc1` [4h], the midpoint of inhibition, the IC50, lay at 6.79 ± 0.24 µM.

`COc1ccc(C2=Nn3c(nnc3-c3ccc(OC)cc3)SC2)cc1` [5a]: the IC50 turned out to be 5.91 ± 0.13 µM.

In the case of `COc1ccc(-c2nnc3n2N=C(c2ccc(Cl)cc2)CS3)cc1` [5b], the IC50 was 8.37 ± 0.16 µM.

Regarding `COc1ccc(-c2nnc3n2N=C(c2ccc(F)cc2)CS3)cc1` [5c], the IC50 was determined as 6.93 ± 0.14 µM.

On to `COc1ccc(-c2nnc3n2N=C(c2ccc(C)cc2)CS3)cc1` [5d], for which the IC50 was determined as 5.16 ± 0.14 µM.

For the compound `COc1ccc(-c2nnc3n2N=C(c2cccc4ccccc24)CS3)cc1` [5f], the midpoint of inhibition, the IC50, lay at 10.5 ± 0.26 µM.

In turn, `COc1ccc(-c2nnc3n2N=C(c2ccc(Cl)c(Cl)c2)CS3)cc1` [5h] yielded an IC50 of 5.3 ± 0.17 µM.

`COc1ccc(C2=Nn3c(nnc3-c3cccc(Br)c3)SC2)cc1` [5i] yielded an IC50 of 9.55 ± 0.41 µM.

The compound `Clc1ccc(C2=Nn3c(nnc3-c3cccc(Br)c3)SC2)cc1` [5j] gave an IC50 of 11.5 ± 0.38 µM.

Compound `Cc1ccc(C2=Nn3c(nnc3-c3cccc(Br)c3)SC2)cc1` [5l] had an IC50 of 5.56 ± 0.12 µM.

On to `Brc1cccc(-c2nnc3n2N=C(c2cccc4ccccc24)CS3)c1` [5n], for which inhibition was half-maximal at 7.2 ± 0.18 µM (IC50).

As for `O=[N+]([O-])c1ccc(C2=Nn3c(nnc3-c3cccc(Br)c3)SC2)cc1` [5o], the IC50 worked out at 7.72 ± 0.31 µM.

In turn, `Clc1ccc(C2=Nn3c(nnc3-c3cccc(Br)c3)SC2)cc1Cl` [5p] came in with an IC50 of 13 ± 0.37 µM.

For `COc1ccc(-c2nnc3sc(COc4ccccc4C)nn23)cc1` [compound 4c], the IC50 was 12 ± 0.25 µM.

As to `COc1ccc(-c2nnc3sc(COc4ccc(C)cc4)nn23)cc1` [compound 4d], half-maximal inhibition (IC50) required 39 ± 0.53 µM.

`Cc1ccccc1OCc1nn2c(-c3cccc(Br)c3)nnc2s1` [compound 4i] came in with an IC50 of 9.63 ± 0.32 µM.

`Cc1ccc(OCc2nn3c(-c4cccc(Br)c4)nnc3s2)cc1` [compound 4j] gave an IC50 of 4.67 ± 0.15 µM.

The compound `Fc1ccc(OCc2nn3c(-c4cccc(Br)c4)nnc3s2)cc1` [compound 4l] gave an IC50 of 46.8 ± 0.63 µM.

For `Fc1ccc(C2=Nn3c(nnc3-c3cccc(Br)c3)SC2)cc1` [compound 5k], the IC50 came out at 3.33 ± 0.11 µM.

Staying with this assay, now noted: relative to thiourea IC50.
Regarding `Fc1ccc(C2=Nn3c(nnc3-c3cccc(Br)c3)SC2)cc1` [compound 5k], the “inhibitory potential fold higher than thiourea” value is on record as approximately 6.5 fold.
